Assay results taken from the NIST ThermoML archive (doi:10.1016/j.fluid.2018.11.011).
Numbers after ± are expanded uncertainties.

Test: activity coefficient (dimensionless); of the first substance listed, at infinite dilution; xn = mol fraction of the nth substance listed
Details: 101.33 kPa, Liquid, Chromatography, x1 = 0

Row | Compound | activity coefficient (308 K) | activity coefficient (323 K) | activity coefficient (338 K) | activity coefficient (353 K)
1 | CCCCCCCC [octane] + CCCCCCCCCC[N+](C)(C)CCCCCCCCCC.F[B-](F)(F)F | 4.41 ± 0.46 | 3.71 ± 0.39 | 3.13 ± 0.33 | 2.89 ± 0.3
2 | C#CCCCCC [1-heptyne] + CCCCCCCCCC[N+](C)(C)CCCCCCCCCC.F[B-](F)(F)F | 0.892 ± 0.091 | 0.893 ± 0.091 | 0.894 ± 0.091 | 1.12 ± 0.12
3 | C#CCCCC [1-hexyne] + CCCCCCCCCC[N+](C)(C)CCCCCCCCCC.[O-][Cl+3]([O-])([O-])[O-] | 0.732 ± 0.076 | 0.83 ± 0.085 | 0.989 ± 0.1 | 0.969 ± 0.099
4 | CCCCC [pentane] + CCCCCCCCCC[N+](C)(C)CCCCCCCCCC.[O-][Cl+3]([O-])([O-])[O-] | 1.77 ± 0.18 | 1.59 ± 0.17 | 1.44 ± 0.15 | 1.28 ± 0.13
5 | CC(C)O [propan-2-ol] + CCCCCCCCCC[N+](C)(C)CCCCCCCCCC.F[B-](F)(F)F |  | 3.47 ± 0.37 | 2.41 ± 0.25 | 1.9 ± 0.2
6 | C=CCCCC [hex-1-ene] + CCCCCCCCCC[N+](C)(C)CCCCCCCCCC.F[B-](F)(F)F | 1.51 ± 0.16 | 1.52 ± 0.16 | 1.53 ± 0.16 | 1.76 ± 0.18
7 | C1CCCCCC1 [cycloheptane] + CCCCCCCCCC[N+](C)(C)CCCCCCCCCC.F[B-](F)(F)F | 1.65 ± 0.17 | 1.61 ± 0.17 | 1.57 ± 0.16 | 1.98 ± 0.21
8 | CO [methanol] + CCCCCCCCCC[N+](C)(C)CCCCCCCCCC.[O-][Cl+3]([O-])([O-])[O-] | 0.447 ± 0.051 | 0.351 ± 0.043 | 0.419 ± 0.048 | 0.407 ± 0.047
9 | C=CCCC [1-pentene] + CCCCCCCCCC[N+](C)(C)CCCCCCCCCC.[O-][Cl+3]([O-])([O-])[O-] | 1.88 ± 0.2 | 1.56 ± 0.16 | 1.37 ± 0.14 | 1.31 ± 0.13
10 | C=CCCCCC [1-heptene] + CCCCCCCCCC[N+](C)(C)CCCCCCCCCC.[O-][Cl+3]([O-])([O-])[O-] | 2.69 ± 0.28 | 1.85 ± 0.19 | 2.23 ± 0.23 | 2.15 ± 0.23
11 | CCCCCCC [heptane] + CCCCCCCCCC[N+](C)(C)CCCCCCCCCC.F[B-](F)(F)F | 3.53 ± 0.37 | 3.04 ± 0.32 | 2.62 ± 0.28 | 2.48 ± 0.26
12 | C1CCCCC1 [cyclohexane] + CCCCCCCCCC[N+](C)(C)CCCCCCCCCC.F[B-](F)(F)F | 1.47 ± 0.15 | 1.43 ± 0.15 | 1.4 ± 0.14 | 1.73 ± 0.18
13 | ClCCCl [1,2-dichloroethane] + CCCCCCCCCC[N+](C)(C)CCCCCCCCCC.[O-][Cl+3]([O-])([O-])[O-] |  | 0.464 ± 0.052 | 0.494 ± 0.055 | 0.482 ± 0.053
14 | CC(C)=O [acetone] + CCCCCCCCCC[N+](C)(C)CCCCCCCCCC.[O-][Cl+3]([O-])([O-])[O-] |  | 0.489 ± 0.054 | 0.537 ± 0.058 | 0.527 ± 0.057
15 | ClC(Cl)Cl [trichloromethane] + CCCCCCCCCC[N+](C)(C)CCCCCCCCCC.[O-][Cl+3]([O-])([O-])[O-] |  | 0.224 ± 0.034 | 0.29 ± 0.038 | 0.302 ± 0.039
16 | C=CCCCC [hex-1-ene] + CCCCCCCCCC[N+](C)(C)CCCCCCCCCC.[O-][Cl+3]([O-])([O-])[O-] | 2.28 ± 0.24 | 1.56 ± 0.16 | 1.8 ± 0.19 | 1.73 ± 0.18
17 | ClC(Cl)Cl [trichloromethane] + CCCCCCCCCC[N+](C)(C)CCCCCCCCCC.F[B-](F)(F)F |  | 0.318 ± 0.04 | 0.346 ± 0.042 | 0.399 ± 0.047

Row | Compound | activity coefficient (308 K) | activity coefficient (323 K) | activity coefficient (338 K) | activity coefficient (353 K)
18 | C#CCCCC [1-hexyne] + CCCCCCCCCC[N+](C)(C)CCCCCCCCCC.F[B-](F)(F)F | 0.85 ± 0.087 | 0.838 ± 0.086 | 0.826 ± 0.085 | 0.937 ± 0.096
19 | CC(C)=O [acetone] + CCCCCCCCCC[N+](C)(C)CCCCCCCCCC.F[B-](F)(F)F |  | 0.991 ± 0.1 | 0.833 ± 0.086 | 0.86 ± 0.088
20 | C/C=C/C(C)C [(E)-4-methyl-2-pentene] + CCCCCCCCCC[N+](C)(C)CCCCCCCCCC.F[B-](F)(F)F |  | 1.68 ± 0.17 | 1.45 ± 0.15 | 1.57 ± 0.16
21 | ClCCCl [1,2-dichloroethane] + CCCCCCCCCC[N+](C)(C)CCCCCCCCCC.F[B-](F)(F)F |  | 0.616 ± 0.065 | 0.622 ± 0.066 | 0.682 ± 0.071
22 | CC#N [acetonitrile] + CCCCCCCCCC[N+](C)(C)CCCCCCCCCC.F[B-](F)(F)F |  | 1.21 ± 0.12 | 1.06 ± 0.11 | 1.24 ± 0.13
23 | C=CCCC [1-pentene] + CCCCCCCCCC[N+](C)(C)CCCCCCCCCC.F[B-](F)(F)F | 1.27 ± 0.13 | 1.2 ± 0.12 | 1.13 ± 0.12 | 1.26 ± 0.13
24 | CCO [ethanol] + CCCCCCCCCC[N+](C)(C)CCCCCCCCCC.F[B-](F)(F)F | 0.539 ± 0.058 | 0.469 ± 0.052 | 0.408 ± 0.047 | 0.422 ± 0.048
25 | CC(C)O [propan-2-ol] + CCCCCCCCCC[N+](C)(C)CCCCCCCCCC.[O-][Cl+3]([O-])([O-])[O-] |  | 1.5 ± 0.16 | 1.54 ± 0.16 | 1.11 ± 0.11
26 | CCCCCC [hexane] + CCCCCCCCCC[N+](C)(C)CCCCCCCCCC.[O-][Cl+3]([O-])([O-])[O-] | 2.49 ± 0.26 | 2.48 ± 0.26 | 2.47 ± 0.26 | 2.45 ± 0.26
27 | C1CCCC1 [cyclopentane] + CCCCCCCCCC[N+](C)(C)CCCCCCCCCC.[O-][Cl+3]([O-])([O-])[O-] | 1.48 ± 0.15 | 1.16 ± 0.12 | 1.26 ± 0.13 | 1.19 ± 0.12
28 | O=C1CCCCC1 [cyclohexanone] + CCCCCCCCCC[N+](C)(C)CCCCCCCCCC.[O-][Cl+3]([O-])([O-])[O-] |  | 11.7 ± 1.2 | 9.68 ± 1 | 8.46 ± 0.89
29 | C1CCOC1 [tetrahydrofuran] + CCCCCCCCCC[N+](C)(C)CCCCCCCCCC.[O-][Cl+3]([O-])([O-])[O-] |  | 0.478 ± 0.053 | 0.46 ± 0.052 | 0.536 ± 0.058
30 | CCO [ethanol] + CCCCCCCCCC[N+](C)(C)CCCCCCCCCC.[O-][Cl+3]([O-])([O-])[O-] | 0.623 ± 0.066 | 0.497 ± 0.055 | 0.582 ± 0.062 | 0.531 ± 0.058
31 | CCC(C)=O [butanone] + CCCCCCCCCC[N+](C)(C)CCCCCCCCCC.F[B-](F)(F)F |  | 1.07 ± 0.11 | 0.903 ± 0.092 | 0.82 ± 0.084
32 | C=CCCCCCC [oct-1-ene] + CCCCCCCCCC[N+](C)(C)CCCCCCCCCC.F[B-](F)(F)F | 0.765 ± 0.079 | 0.757 ± 0.078 | 0.749 ± 0.078 | 0.951 ± 0.097
33 | C/C=C/C(C)C [(E)-4-methyl-2-pentene] + CCCCCCCCCC[N+](C)(C)CCCCCCCCCC.[O-][Cl+3]([O-])([O-])[O-] |  | 1.68 ± 0.17 | 1.72 ± 0.18 | 1.46 ± 0.15
